Several values for one entry are separate records, joined by “and”; a condition that tells them apart may be missing. Equal entries are not always repeated. Entries after “also recorded” stand apart in the source; their conditions may differ. No end group written: not given here.
Key:
[1] = tested on: human red blood cells (hRBCs); assay type: cell-based
Procedure: We evaluated the ability of the peptide to cause hemoglobin leakage using the method described in [15]. In brief, we washed human erythrocytes (Rockland Immunochemicals (Limerick, Pottstown, PA, USA)) 3× times in an equal volume of PBS and resuspended them as 2% hRBCs solution. We added 90 µL of the blood cells to 10 µL of the peptide solution (10×) in a 96-well microtiter plate (Cat No. 3595, Corning, New York, NY, USA) and incubated the plates at 37 °C for 1 h. Next, we centrifuged the plates at 500× g for 5 min, transferred 60 µL of the supernatant into a fresh 96-well plate, and read the absorbance at 540 nm. We calculated the percent hemolysis considering 100% hemolysis caused by 1% Triton X-100, and 0% on PBS and using the formula for percentage of hemolysis as: (A540 nm in the peptide solution − A540 nm in PBS)/(A540 nm of 1% Triton X-100-treated sample − A540 nm in PBS) × 100.

[2] = tested on: E. faecium WC176; assay: organism not typed; assay type: cell-based, Enterococcus faecium; settings: WC176, 18 h
Procedure: (§1) To determine the MICs of peptides, we used the broth microdilution method described by the Clinical and Laboratory Standards Institute. We made serial dilutions of 10× concentration (10 µL) for each peptide in duplicates in 96-well plates (Cat No. 3595, Corning, New York, NY, USA). We added 90 µL of logarithmic-phase bacteria at 5 × 10^5 CFU/mL (in BHI media) to the peptides and then incubated the plates at 37 °C for 18 h. We measured the OD600 absorbance readings using the Spectra Max i3x spectrophotometer (Molecular Devices, San Jose, CA, USA) and determined the MIC as the peptide concentration that inhibits the growth of bacteria.

[3] = tested on: E. faecium C68 biofilm formation; assay: Prevention of E. faecium biofilm formation (XTT, crystal violet); assay type: cell-based, Enterococcus faecium; settings: for biomass depleted / biofilm formation inhibited: at 32 µg/mL, biofilm formation stage
Procedure: We evaluated the ability of the lactoferrin-derived peptides to inhibit biofilm formation following an established protocol with modifications. In short, we prepared exponential cultures of E. faecium C68 (adjusted to OD600 = 0.01) in BHI media (supplemented with 0.2% glucose) from overnight grown cultures. We added 90 µL of the bacterial culture to 10 µL of serially diluted 10× peptide solution in flat-bottomed 96-well polystyrene microtiter plates (Cat No. 3595, Corning, NY, USA) and then incubated the plates at 37 °C for 24 h. We considered media containing bacteria and water as the positive control, while media with water served as the negative control. After incubation, we carefully pipetted out the media and washed the wells with PBS (Gibco, Waltham, MA, USA) to remove loosely attached planktonic cells. We quantified the biomass by staining the biofilms with crystal violet following an established protocol and quantitated the concentration of peptide that inhibits 50% of biofilm formation (MBIC50). Furthermore, we measured the live cell count of the biofilms using XTT [2,3-bis(2-methyloxy-4-nitro-5-sulfophenyl)-2H-tertazolium-5-carboxanilide] dye (ATCC, Manassas, VA, USA). We calculated the percentage of biofilm growth by assuming that there was 100% biofilm growth in wells with bacteria without peptide treatment.

[4] = tested on: E. faecium D14; assay: microbe, parasite or virus in culture; assay type: cell-based, Enterococcus faecium; settings: ampicillin resistant, vancomycin-sensitive isolate
Procedure: as §1

[5] = tested on: E. faecium D25; assay: microbe, parasite or virus in culture; assay type: cell-based, Enterococcus faecium; settings: ampicillin resistant, vancomycin-sensitive isolate
Procedure: as §1

[6] = tested on: E. faecium strain C68; assay: microbe, parasite or virus in culture; assay type: cell-based, Enterococcus faecium; settings: strain C68, 18 h
Procedure: as §1

[7] = tested on: E. faecium D24; assay: microbe, parasite or virus in culture; assay type: cell-based, Enterococcus faecium; settings: ampicillin resistant, vancomycin-sensitive isolate
Procedure: as §1

[8] = tested on: E. faecium D29; assay: microbe, parasite or virus in culture; assay type: cell-based, Enterococcus faecium; settings: ampicillin resistant, vancomycin-sensitive isolate
Procedure: as §1

[9] = tested on: E. faecium E007; assay: microbe, parasite or virus in culture; assay type: cell-based, Enterococcus faecium; settings: tetracycline-resistant strain
Procedure: as §1

[10] = tested on: E. faecium strain C68 on porcine skin; assay: Ex vivo porcine skin infection assay; set-up: species or system Enterococcus faecium; settings: 1 × 10^6 CFU, 4 h treatment
Excerpt: We evaluated the efficacy of designed lactoferrin AMPs in an ex vivo porcine skin model previously described with minor modifications. We first cleaned the shaved porcine skin (Fisher Scientific, Hampton, NH, USA) with 70% ethanol and then water, and glued polyethylene tubing (5 mm) (Nalgene VWR 228-0170, Radnor, PA, USA) to the skin samples with cyanoacrylate glue (Fisher Scientific, Hampton, NH, USA). Using disposable razors, we cut each piece of skin glued to the tube and inserted it into a 12-well tissue culture plate (Falcon, Cat No. 353182). We infected each skin with 1 × 10^6 CFU of exponential or persister E. faecium strain C68 cells in a total volume of 10 µL. Following an incubation of 1 h at 37 °C, we treated the skin with 50 µL with 5L and 6L at concentrations of 10× or 1× MIC. After an additional 4 h of incubation at 37 °C, we washed each tubing well with 250 µL of PBS (pH 7.4) containing 0.05% Triton X-100 to remove bacteria. After serially diluting the bacterial sample, we counted their CFUs.

Substance | HL50 [1] [µg/mL] | MIC WC176 [2] [µg/mL] | concentration killing 50% of live bacterial cells during biofilm formation stage ([3]; XTT, 24 h, BHI + 0.2% glucose) [µg/mL] | biomass depleted / biofilm formation inhibited [3] | MIC D14 [4] [µg/mL] | MIC D25 [5] [µg/mL] | MIC EF C68 [6] [µg/mL] | MIC Media Only [6] [µg/mL] | MIC D24 [7] [µg/mL] | MIC D29 [8] [µg/mL] | MIC E007 [9] [µg/mL] | bacterial load reduction, exponential cells, 1× MIC [10] | bacterial load reduction, persister cells, 1× MIC [10] [log] | bacterial load, exponential cells, 10× MIC [10] | bacterial load, persister cells, 10× MIC [10]
RRWLWRLRWLWR-NH2 [Peptide 6L] | 34 | 8 | 1.2 | 90% and 92% | 8 | 4 | 4 | 4 | 8 | 8 | 4 | 1.2 logs | 1 | effectively eliminated almost all exponential cells | completely eliminated persister cells
RRWLWLRRWLWR-NH2 [Peptide 5L] | 56 | 8 | – | 90% | 16 | 4 | 4 | 4 | 8 | 16 | 4 | 1 log | 1 | effectively eliminated almost all exponential cells | effectively eliminated all; also recorded: completely eliminated persister cells

Source: PMC9404989, “Design and Evaluation of Short Bovine Lactoferrin-Derived Antimicrobial Peptides against Multidrug-Resistant Enterococcus faecium” (Antibiotics, 2022)
